# Source: patent US5565455A, “Method for treating substance abuse disorders” (priority 1992, dated 1996)
# Counter-ions that a name gives are not always drawn. Like-named read-outs stand apart in the source and are kept apart here.
# Assays:
# 5-HT2 = 5-HT2 (Homo sapiens, UniProt P28223); experiment: Drug affinity for 5-HT2 receptor, radioligand 3H-ketanserin, cerebral cortex
# [1] = system: 5-HT reuptake, synaptosomes from rat frontal cortex; experiment: Inhibition of reuptake of [3H-5-HT] by synaptosomes from rat frontal cortex; assay type: biochemical; conditions: method of Shank et al.
# [2] = system: voluntary ethanol consumption in rats; conditions: cited from earlier work
# 5-HT1A = target: T1, 5-HT1A (Homo sapiens, UniProt P08908); experiment: biochemical; assay type: binding
# T1 sequence (P08908 1-422): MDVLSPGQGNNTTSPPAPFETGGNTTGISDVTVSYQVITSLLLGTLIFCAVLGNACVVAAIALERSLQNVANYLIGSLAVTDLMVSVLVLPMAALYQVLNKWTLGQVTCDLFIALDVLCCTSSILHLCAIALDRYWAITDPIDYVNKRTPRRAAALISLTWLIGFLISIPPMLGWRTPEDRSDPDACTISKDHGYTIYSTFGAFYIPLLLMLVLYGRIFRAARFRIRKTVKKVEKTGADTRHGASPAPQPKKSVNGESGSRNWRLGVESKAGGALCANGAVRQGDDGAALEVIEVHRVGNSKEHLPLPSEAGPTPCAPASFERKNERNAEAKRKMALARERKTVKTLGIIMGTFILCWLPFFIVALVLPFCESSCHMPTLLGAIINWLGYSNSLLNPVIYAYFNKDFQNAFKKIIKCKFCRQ
# [3] = system: consumption of alcohol by monkeys; conditions: cited from earlier work
# [4] = system: alcohol-dependent individuals; conditions: cited from earlier work
# [5] = system: Sprague-Dawley rats induced to drink alcohol chronically; experiment: Alcohol drinking in Sprague-Dawley rats induced by cyanamide injections; assay type: in vivo, rat
# Method: To further illustrate the useful pharmacological properties of FG5893, the effect of FG5893 administered systemically was determined in Sprague-Dawley rats induced to drink alcohol chronically by a series of intraperitoneal injections of cyan-amide according to experimental procedures described previously (Critcher, E. C. and R. D. Myers, Alcohol 4:347-353, 1987). Intakes of food and body weights were recorded.
# FG5893 in a dose of 0.5, 1.0 and 2.5 mg/kg was administered twice a day for three consecutive days. […] This finding is notable because drugs that attenuate the preference for alcohol consumed in a concentration of pharmacological consequence typically impair the ingestion of food.
# [6] = clinical trial versus placebo in alcohol-dependent individuals
# [7] = 0.5, 1.0 and 2.5 mg/kg twice a day for three consecutive days, all doses
# Sequence of 5-HT2 (P28223 whole entry, species assumed): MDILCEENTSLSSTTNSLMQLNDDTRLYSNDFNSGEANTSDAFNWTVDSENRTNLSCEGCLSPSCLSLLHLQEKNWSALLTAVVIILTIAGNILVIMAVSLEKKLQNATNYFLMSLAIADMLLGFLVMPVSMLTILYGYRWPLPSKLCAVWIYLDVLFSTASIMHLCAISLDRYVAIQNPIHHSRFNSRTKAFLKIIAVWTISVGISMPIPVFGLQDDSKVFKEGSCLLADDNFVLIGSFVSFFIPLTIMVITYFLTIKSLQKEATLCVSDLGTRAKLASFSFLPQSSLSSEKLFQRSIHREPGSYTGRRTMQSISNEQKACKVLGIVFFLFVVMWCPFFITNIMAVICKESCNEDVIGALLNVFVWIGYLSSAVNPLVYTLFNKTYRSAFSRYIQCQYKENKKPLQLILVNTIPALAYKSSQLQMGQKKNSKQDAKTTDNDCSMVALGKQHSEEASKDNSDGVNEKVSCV
smiles,measurement,setting,value
CCNC(=O)N1CCN(CCCC(c2ccc(F)cc2)c2ccc(F)cc2)CC1 [Amperozide],Ki,5-HT2,17 nM
same,IC50,[1],320 nM
same,consumption of food and level of body weight,"[2]; rat, in vivo",without affecting
same,intake of alcohol in rats,[2]; rats,significantly attenuate
same,Ki,5-HT1A,805 nM
O=C1CC2(CCCC2)CC(=O)N1CCCCN1CCN(c2ncccn2)CC1 [Buspirone],consumption of alcohol by monkeys,[3],attenuate significantly
same,drop-out rate,[4]; [6],lower drop-out rate
same,signs of craving,[4]; [6],fewer signs of craving
"COC(=O)c1cccnc1N1CCN(CCCC(c2ccc(F)cc2)c2ccc(F)cc2)CC1 [FG5893, 2-[4-[4,4-bis(4-fluorophenyl)butyl]-1-piperazinyl]-3-pyridinecarboxylic acid methyl ester dihydrochloride ethylat]",Ki,5-HT2,4 nM
same,IC50,[1],80 nM
same,"intake of alcohol, absolute g/kg",[5]; [7],significantly reduced
same,proportion of alcohol to total fluid intake,[5]; [7],significantly reduced
same,alcohol consumption after the injection sequence,"[5]; 1.0 and 2.5 mg/kg doses, two 4-day tests immediately following the injection sequence and after a 40-day interval",continued to suppress alcohol consumption
same,body weights,[5]; during or after administration,Neither body weights nor intakes of food of the rats were affected
same,intakes of food,[5]; during or after administration,Neither body weights nor intakes of food of the rats were affected
same,Ki,"5-HT1A; Radioligand 3H-8-OH-DPAT, tissue hippocampus",0.7 nM
CN(C)C/C=C(/c1ccc(Br)cc1)c1cccnc1 [Zimelidine],IC50,[1],120 nM
same,number of abstinent days,[4]; human trials,increase
same,number of daily drinks,[4]; human trials,slight reduction
same,ingestion of food and alcohol,[2]; concomitantly,attenuate
same,voluntary ethanol consumption in rats,[2]; rats,potent inhibitory effect
